{"source": "patent US20250040503A1", "about": "“METHOD FOR PRODUCING HAPLOID, AND DOUBLED HAPLOID BETA VULGARIS PLANTS BY MICROSPORE CULTURE” (KWS SAAT SE & Co. KGaA, priority 2021, published 2025)", "tested_on": "Beta vulgaris (sugar beet) microspores", "test": "Callus induction from isolated sugar beet microspores (microspore culture)", "type": "cell-based", "details": "for callus induction potential in comparison to TSA: comparator TSA 5 μM, same time point, duration and buffer", "description": "The experimental set-up is detailed in the below Examples. In the Figures, each column represents a different genotype. […] Time point, duration and buffer used were always identical for all treatments in the different rows. The different rows thus only differ from each other in the kind of inhibitor used.\nBracteoles are cut off the inflorescence and buds bigger than 1.8 mm are removed. Remaining part is divided into smaller pieces, preferably pieces of 1-1.5 cm. Buds smaller than 1.8 mm contain typically microspores at the tetrad and uninuclear developmental stage, which are the optimal developmental stages for further progressing. However, it should be noted that due to broad variation of different genotypes and donor sources (e.g., monogerm and multigerm), the correlation between the maximum flower bud size and nuclear stages of the microspores needs to be established for each genotype individually. The determination of the nuclear stages is carried out using a fluorescence-based staining method. The method contains fixation of the cells for instances with Ethanol acetic acid and DAPI staining (Kim, Moon-Za, and In-Chang Jang. “Rapid Assessment of Microspore Development Stage in Pepper Using DAPI and Ferric chloride.” Journal of Plant Biotechnology 2.3 (2000): 129-134.).\nThe flower shoot segments are transferred to isolation buffer, e.g., in a blending device and 40 ml (isolation buffer, Table 1) is added. The Isolation buffer contains macro- and microsalts, amino acids, monosaccharides and one or more complex protein compositions, pH is adjusted to pH 7.5. The complex protein composition or its source comprises preferably hydrolysed or partially hydrolysed protein matter or protein source. It can derive from any source that is known or that be applicable in addition, such as milk (such as, casein, whey), animal (such as, meat, fish), cereal (such as, rice, corn), plant (such as, soybean) or its combination. This proteinoid comprises milk protein isolates, as described herein lactoprotein concentrate, casein isolates, casein hydrolysate, lactalbumin, casein-sodium or calcium caseinate, full cow's milk, partially or completely skimmed milk, soy protein isolate, soybean protein concentrate etc. In one embodiment, complex protein composition comprises the protein source of the milk protein deriving from bovine milk.\nThe material is homogenized, e.g., by means of a homogenizer such as a Waring blender or sonication device at around 3000 rpm for 1 min. The crude cell suspension is passed stepwise through cell strainers of pore sizes between 25 μm and 100 μm. The purified suspension is transferred into tubes for subsequent centrifugation at ˜200 g for 3 min.\nThe supernatant is removed and the pellet is resuspended in a suitable amount of isolation buffer. An aliquot of the cell solution is taken for evaluation of the number of cells per ml by means of a counting chamber. Cell density is adjusted preferably to a cell density of 25,000 to 500,000 cells with TM media.\nIf the HDACi trichostatin A (TSA) is used, it is dissolved in dimethylsulfoxide (DMSO) to a final concentration of between 1 nM and 10 μM, preferably 100 nM to 10 μM, more preferably 1 μM to 10 μM, depending on the genotype and the donor sources (e.g., monogerm and multigerm). Other non-limiting examples of HDACi which may be used belong to the class of hydroxamic acids and hydroxamates, such as vorinostat (SAHA), belinostat (PXD101), LAQ824, and panobinostat (LBH589). Other non-limiting examples of HDACis for use according to the invention include cyclic tetrapeptides (such as trapoxin B) and depsipeptides, such as romidepsin (FK228), benzamides such as entinostat (MS-275), C1994, and mocetinostat (MGCD0103), electrophilic ketones, and aliphatic acid compounds such as phenylbutyrate and valproic acid.\nAfter 1 to 10 days incubation at 32° C. the TSA is removed by centrifugation preferably at ˜200 g.", "note": "Entries after “also recorded” stand apart in the source; their conditions may differ."}
{"smiles": "Cc1sc2c(c1C)C(c1ccc(Cl)cc1)=N[C@@H](CC(N)=O)c1nnc(C)n1-2", "note": "[CPI-203]", "values": [{"measurement": "callus induction", "setting": "CPI-203 1 μM, 2.5 μM and 5 μM, 6 genotypes, FIG. 6", "value": "slight positive effect; also recorded: very small, but positive, effect"}, {"measurement": "callus induction potential in comparison to TSA", "value": "performed worse than TSA"}]}
{"smiles": "CC(=O)N1c2ccc(-c3ccc(C(=O)O)cc3)cc2[C@H](Nc2ccc(Cl)cc2)C[C@@H]1C", "note": "[I-Bet 726]", "values": [{"measurement": "callus induction", "setting": "I-Bet 726 1 μM, 2.5 μM and 5 μM, FIG. 7", "value": "No callus induction"}]}
{"smiles": "O=C(CCCCCCC(=O)Nc1ccccc1)NO", "note": "[SAHA, vorinostat]", "values": [{"measurement": "toxicity in comparison to TSA", "setting": "SAHA 1 μM and 5 μM vs TSA 5 μM, microspore culture", "value": "more toxic"}, {"measurement": "callus induction", "setting": "SAHA 1 μM and 5 μM, same buffer as TSA, six genotypes, FIG. 4", "value": "good effect on some genotypes"}, {"measurement": "callus induction potential in comparison to TSA", "value": "less effective than TSA"}]}
{"smiles": "CC(/C=C/C(=O)NO)=C\\[C@@H](C)C(=O)c1ccc(N(C)C)cc1", "note": "[TSA, trichostatin A]", "values": [{"measurement": "callus induction", "setting": "TSA 5 μM, six genotypes, positive control of FIG. 4 to FIG. 7", "value": "strong callus induction in all six genotypes"}, {"measurement": "callus induction performance at other concentrations", "setting": "TSA in the lower μM or even nM range and in higher concentrations, data not shown", "value": "performed well"}, {"measurement": "callus induction potential in comparison to TSA", "value": "performed best"}]}
